How the values were obtained:
[1] = system: recurrent or metastatic (R/M) adenoid cystic carcinoma (ACC); test: Phase 2 study of rivoceranib in R/M ACC: overall survival, intention-to-treat population; type: in vivo, human; conditions: 700 mg QD start
From the text: (§1) Objectives: Primary objectives were to evaluate safety & tolerability, efficacy by objective response rate (ORR), best overall response (BOR), time to response, duration of response, disease control rate, and duration of disease control. Secondary objectives were to evaluate efficacy as measured by overall survival, progression-free survival and event-free survival. The primary efficacy endpoint was the ORR, defined as the proportion of patients who achieved confirmed complete response (CR) or partial response (PR) per Response Evaluation Criteria in Solid Tumors (RECIST) Version 1.1 (V1.1). The secondary efficacy endpoints were duration of response (DoR) assessed by the investigator and a blinded independent review committee (BIRC), progression-free survival (PFS) assessed at 6 months, 12 months, and 2 years by investigator and BIRC, Time to Progression (TTP) assessed by investigator and BIRC, and overall survival (OS) assessed at 1 and 2 years. Exploratory efficacy endpoints include ORR per CHOI response criteria (based on the journal article, Choi et al., Correlation of computed tomography and positron emission tomography in patients with metastatic gastrointestinal stromal tumor treated at a single institution with imatinib mesylate: proposal of new computed tomography response criteria. J Clin Oncol. 2007; 25(13): 1753-1759) by a blinded independent review […] (BIRC) and disease control rate (DCR) per RECIST V1.1 by Investigator and BIRC. Except for CHOI response criteria, all response endpoints were assessed per RECIST V1.1 by Investigator and BIRC.
The OS was calculated by Overall Survival (months)=12*(Date of death−First dose of rivoceranib+1)/365.25. Median OS were not evaluable. In general, OS rates at 6, 9 and 12 months were similar regardless of prior VEGFR inhibitor treatment or prior systemic anticancer treatment.

R/M ACC = conditions: RECIST V1.1; 500 mg QD; 68 patients, head and neck R/M ACC; cited from earlier work
[2] = Phase 2 study of rivoceranib in R/M ACC: safety, adverse events, dose modifications; type: in vivo, human
From the text: Overall design: An ongoing Phase 2, multicenter, open-label, single-arm study was designed to evaluate the efficacy and safety of rivoceranib in patients with recurrent or metastatic (R/M) adenoid cystic carcinoma (ACC) of all anatomic sites of origin. The study was composed of an initial screening phase (up to 28 days), a treatment phase, and a follow-up phase.
as §1
Dose determination: Enrolled patients initiated treatment with rivoceranib 700 mg daily (QD). Up to 3 levels of dose reduction for toxicity were permitted: 500 mg QD, 300 mg QD and 200 mg QD. Patients received treatment until disease progression, unacceptable toxicity, death or withdrawal of consent to treatment. Patients deriving benefit were permitted to continue treatment with rivoceranib beyond disease progression. After discontinuation of study treatment, patients were to be followed for survival (and initiation of new anticancer therapy) for 24 months. Patients were dosed with rivoceranib 700 mg orally daily (QD) in 28-day cycles. Treatment with rivoceranib was continued until disease progression, unacceptable toxicity, death, or withdrawal of consent.
The median duration of treatment was 31.07 weeks (range: 0.6 to 103.0). The median time-averaged daily dose was 397.6 mg/day, which was […] of initial daily dose of 700 mg/day. Overall, 85% of patients required 1 or more dose modifications (reduction or interruption) due to an adverse event (AE).
Safety Summary: Rivoceranib was generally well-tolerated with the toxicity profile as expected based on other studies of rivoceranib in patients with solid tumors, and consistent with the class effect of angiogenesis inhibitors. […] Four patients experienced a fatal adverse event. These events consisted of epistaxis in two patients and acute respiratory failure in two patients. […] The median time to each of these dose reductions was 4.00, 7.71 and 16.00 weeks, respectively. The median duration of treatment was 31.1 weeks (range, 0.6-103.0). The median actual dose intensity was 421.0 mg/day. The relative dose intensity was 60.1%. Overall, 68 patients required one or more dose modifications (reduction or interruption) due to an adverse event. The median time to first dose reduction was 4.1 weeks (range, 1-40).

N#CC1(c2ccc(NC(=O)c3cccnc3NCc3ccncc3)cc2)CCCC1 [Rivoceranib, N-[4-(1-cyanocyclopentyl)phenyl]-2-{[(pyridin-4-yl)methyl]amino}pyridine-3-carboxamide]
OS rate at 6 months ([1]; ITT population): 94.7%
OS rate at 9 months ([1]; ITT population): 83.5%
OS landmark 12-months, % (95% CI) ([1]; ITT, Total N = 80): 74.5 (62.5-83.1) %
OS landmark 18-months, % (95% CI) ([1]; ITT, Total N = 80): 61.7 (48.3-72.5) %
OS landmark 12-months, % (95% CI) ([1]; ITT, VEGFRi-naïve N = 66): 77.4 (64.2-86.2) %
OS landmark 18-months, % (95% CI) ([1]; ITT, VEGFRi-naïve N = 66): 66.0 (51.1-77.3) %
Median OS ([1]; ITT, VEGFRi-treated N = 14): 17.5 months
OS landmark 12-months, % ([1]; ITT, VEGFRi-treated N = 14): 62.9%
OS landmark 18-months, % ([1]; ITT, VEGFRi-treated N = 14): 45.8%
6-month PFS (R/M ACC): 92.3%
ORR (R/M ACC): 46.2%
median DOR (R/M ACC): 17.7 months
fatal adverse event: acute respiratory failure ([2]; N = 80, 700 mg QD start): two
fatal adverse event: epistaxis ([2]; N = 80, 700 mg QD start): two
patients who experienced a fatal adverse event ([2]; N = 80, 700 mg QD start): Four
Median time to dose reduction to 300 mg QD ([2]; human, in vivo): 7.71 weeks
Median time to dose reduction to 500 mg QD ([2]; human, in vivo): 4.00 weeks
Number of Subjects with Dose Interruption (n, %) ([2]; human, in vivo): (83.8) %
Number of Subjects with Dose Modification (n, %) ([2]; human, in vivo): (88.8) %
Treatment interruptions due to adverse events, patients ([2]; human, in vivo): 86.3%
Treatment reductions due to adverse events, patients ([2]; human, in vivo): 48.8%
median time to first dose reduction ([2]; human, in vivo): 4.1 weeks
patients dose reduced from 700 mg QD to 500 mg QD ([2]; human, in vivo): 80.0%
patients dose reduced to 200 mg QD ([2]; human, in vivo): 32.5%
patients dose reduced to 300 mg QD ([2]; human, in vivo): 51.3%

Source: patent US20260041677A1, “COMPOSITIONS AND METHODS FOR TREATING ADENOID CYSTIC CARCINOMA” (ELEVAR THERAPEUTICS, INC., priority 2022, published 2026)
